Results on one compound are retold here after patent US20110105380A1, “Protection of Nano-Scale Particles from Immune Cell Uptake” (THE TRUSTEES OF THE UNIVERSITY OF PENNSYLVANIA, priority 2009, published 2011).

One assay deals with THP-1 macrophages. As to the kind of experiment: Phagocytosis of IgG-opsonized sheep RBCs by THP-1 macrophages. The format is cell-based, human. How it is done: FIG. 5, comprising FIGS. 5A-5D, illustrates human macrophages and monocytes inhibited by human-CD47. FIG. 5A depicts DIC images of THP-1 phagocytes plus CD47-blocked, IgG-opsonized human-RBC, using F(ab′)2 made from monoclonal B6H12. The scale bars are […]. FIG. 5B depicts human peripheral blood monocyte plus CD47-blocked human-RBC following lysis after 45 min of phagocytosis: PKH26 labeled human RBC are depicted in the right hand panel: Lysed RBC labeled with FITC-anti-Fc indicates the cell is not internalized. Human-RBC and Sheep-RBC were phagocytosed by THP-1 cells in FIG. 5C, or human monocytes in FIG. 5D, depicting phagocytosis increases with opsonization. Inset depicts blebbistatin treatment of ShRBC showing decrease in phagocytosis. Phagocytosis is measured as the ratio of internalized RBCs per phagocyte with 200 phagocytes counted in triplicate experiments (±SEM).
FIG. 7 illustrates that myosin increases the efficiency of phagocytosis. Phagocytosis of IgG-opsonized sheep-RBC were measured as a ratio of internalized RBCs per phagocyte with 200 phagocytes counted in triplicate experiments (±SEM). The level of NMM IIA activity is normalized to WT levels in THP-1, with relative levels of knockdown or overexpression quantified by immunofluorescence and Western blot. Results for phagocytosis of the IgG-opsonized sheep-RBC were fit to a line; where the intercept approximates the result for human-RBC. The inset bar graph depicts blebbistatin inhibition of ShRBC phagocytosis by GFP-NMMIIA expressing WT THP-1.
Phagocytosis by the human-derived THP-1 macrophages of IgG-opsonized RBCs was studied by imaging in DIC microscopy. […] RBC membranes were prelabeled with PKH26, and non-engulfed RBCs were labeled with a fluorescein-labeled antibody against the Fc of the IgG-opsonin. […] A small number of human RBCs were engulfed for either type of phagocyte. […]
In light of the myosin differences seen by fluorescence at the various synapses (FIGS. 2-4), the effect of blebbistatin-inhibited myosin on phagocytosis was studied. […]

In assay [1] the test system is non-muscle myosin IIA at the phagocytic synapse of THP-1 macrophages. As to the kind of experiment: Protein localization to the phagocytic synapse (immunofluorescence). The assay is classed as cell-based, human. Conditions: blebbistatin 50 μM, 10 min pre-incubation. How it is done:
FIG. 4, comprising FIGS. 4A-4B, illustrates CD47 inhibiting myosin localization as similar to blebbistatin. Phagocytic synapses of THP-1 macrophages with IgG-opsonized sheep- or human-RBC (37° C., 10 min) after pre-incubation with blebbistatin (50 μM, 10 min). DMSO was used as a control. FIG. 4A depicts cells fixed and immunostained for non-muscle myosin IIA, F-actin, and Paxillin-Y^118. The scale bars are […]. FIG. 4B depicts quantitation of protein localization to the phagocytic synapse relative to the cytoplasmic intensity set at 1.0 (n=5 cells, ±SD). For cytoskeletal involvement at the phagocytic synapse, streptavidin beads opsonized with rabbit anti-streptavidin FITC. Opsonized beads of different sizes were added to THP-1 cells, PMA treated and immediately placed at 4° C. for 10 min to synchronize phagocytosis. […] For studies involving blebbistatin (EMD Biosciences), macrophages were treated for 10 min at 4° C. prior to temperature increase to 37° C. or for 45 min and 37° C. Macrophages treated with DMSO were used to verify no solvent effects. Immunostaining was performed by permeabilization with 0.1% Triton X-100 in PBS for 20 min before blocking for 1 h with 5% BSA in PBS. Staining with primary antibodies was carried out for 1 h at room temperature in PBS. […] Samples were analyzed by differential interference contrast (DIC) and fluorescence microscopy. […]

One may read the Ki as the equilibrium dissociation constant of an inhibitor or competing ligand from its target.

Turning to `Cc1ccc2c(c1)C(=O)C1(O)CCN(c3ccccc3)C1=N2` (stereo not shown) [blebbistatin], the “inhibition of ShRBC phagocytosis by GFP-NMM IIA expressing THP-1” value with THP-1 macrophages (5 μM blebbistatin) is listed as ~50%. In addition, the “engulfment of sheep RBCs by THP-1 macrophages” value in the assay with THP-1 macrophages (blebbistatin treatment, FIG. 5C) is recorded as “inhibited by blebbistatin to an extent similar to that of CD47 on human RBCs”. Also, on THP-1 macrophages (engulfment of sheep RBCs by THP-1 macrophages, dose-response (not shown), read-out: Ki-blebb for blebbistatin inhibition of phagocytosis), the Ki amounted to 5 µM. The “enrichment of NMM IIA at synaptic contacts with sheep RBC targets” value in assay [1] is reported as “inhibited enrichment of NMM IIA”.
